According to patent publication US20210213039A1, “COMPOSITION CONTAINING ECTOINE OR HYDROXYECTOINE AS AN ACTIVE SUBSTANCE FOR PROMOTING THE REGENERATION OF INJURED BODY TISSUE” (Bitop AG, priority 2012, published 2021):

Columns and labels:
[1] = system: porcine ex-vivo skin punches; assay: Ex-vivo porcine wound healing model (skin punches, wound healing score); design: species or system pig; settings: for Wound healing progress based on the PBS control (MW) / Absolute wound healing progress (wound healing score, MW): 5 μl into the wound, after 48 h; for Wound healing progress based on the PBS control (MW): PBS isotonic = 1.00; for Absolute wound healing progress (wound healing score, MW): score 0-4; for Wound healing potential: porcine ex-vivo skin punches
Protocol: An ex-vivo porcine wound healing model was used as it has been described in patent publication DE 103 17 400 B4.
From the plicae of washed and sterilized pig ears sample punches 6 mm in diameter were taken. From the center of the punches the epidermis and the upper dermis were removed in an area of 3 mm. Immediately after the models had been generated 5 μl of the test substances were introduced into the wounds, while 5 μl of PBS were applied into the control models. After 48 h (t48 h) the models were flash-frozen and stored at −80° C.
14 test series each were carried out so that 8 to 11 evaluable models were available for each sample.
The models were completely embedded in tissue freezing medium (company of Leica, Nussloch), and 6 μm thin sections were prepared using a cryostat. Care had been taken that the focus was always in the center of the respective model.
The sections were placed on SuperFrost object slides, air dried, fixed for 10 min. in −20° C. cold acetone, and stored at −80° C.
All models were stained with hematoxylin/eosin (2 sections each). The sequence of the staining process was as follows:
The staining was evaluated by means of a Leica light microscope DM LS and an Olympus Camedia digital camera.
0: No wound healing progress 1: Small wound tongue 2: Large wound tongue 3: Closed sheet 4: Multi-layered closed sheet.
In the event that both wound margins could be assessed the average between the left and the right wound margin was determined. The statistical evaluations were made using Student's paired T-test.

[2] = system: HaCaT cells (human skin cells); assay: Wound closure in vitro: circular injury in a HaCaT monolayer; assay type: cell-based; settings: for Area of Injury (MW): 0.5% FCS, n=4
Protocol: Plating of HaCaT cells (human skin cells) took place on collagen-I coated 24-well plates. With a complete medium (10% FCS=fetal calf serum) the cells grew together as monolayer within a period of 24 h.
After this cell layer had closed a circular injury was applied in the center using a sterile tip of a defined diameter that averaged 0.68 mm (0.363 mm^2).
When the injury had been applied the complete medium was changed to a starvation medium containing only 0.5 w/w of FCS (fetal calf serum) instead of 10% w/w FCS. The following test solutions were then pipetted on the cells (per solution: n=4):
0.5% FCS+PBS (phosphate buffered saline), control solution 0.5 FCS+1 mM ectoine 0.5 FCS+10 mM ectoine 0.5% FCS+100 mM ectoine.
Over a time span of 48 h the cells were incubated with the test solutions during which wound closure was documented with the aid of a digital camera. In each case photos were taken at the beginning and then at 24-h intervals. The area still found to be free in each case was measured or calculated and expressed in mm^2. The results can be seen from the following tables (SD: Standard deviation, MW: Mean value): […]

[3] = system: ARPE-19 cells (adherent retinal pigment epithelial cells); assay: Re-epithelialization scratch assay; assay type: cell-based; settings: for Gap width in %: after 24 h, untreated sample = 100%; for Gap width in treated cell cultures (re-epithelialization): first two days, especially in serum-free cultures
Protocol: After 24 hours of incubation using 0, 0.1, 0.5, 1, 2.5 and 5 mM of ectoine/hydroxyectoine in serum-free and serum-containing media defined cell areas were removed (scratch assay) from a confluent cell layer of ARPE-19 cells (adherent retinal pigment epithelial cells). The width of the applied gap was determined via microscope at previously marked places. 24 and 48 hours later in each case a photo documentation was prepared with the gap width being again determined at the respective places. 6 tests were performed for each concentration.
The mean value of the gap widths after 24 h of the sample not treated with ectoine was determined to be 100%. The following gap width percentages could be detected: […]

For OCC(CO)O[C@H]1O[C@H](CO)[C@@H](O)[C@H](O)[C@H]1O [GG hypertonic, Glucosylglycerol], the “Wound healing progress based on the PBS control (MW)” value (“Wound healing progress based” for short) [1] was 1.17 and the “Absolute wound healing progress (wound healing score, MW)” value (“Absolute wound healing progress” below) [1] was 1.66.

With OCC(CO)O[C@H]1O[C@H](CO)[C@@H](O)[C@H](O)[C@H]1O [GG I, Glucosylglycerol] the “Wound healing progress based” value [1] was 1.42 and the “Absolute wound healing progress” value [1] was 2.12.

With CC1=NC[C@H](O)[C@@H](C(=O)O)N1 [HE I, Hydroxyectoine] the “Wound healing progress based” value [1] was 1.05 and the “Absolute wound healing progress” value [1] was 1.92.

CC1=NCC[C@@H](C(=O)O)N1 [ectoine, (S)-2-methyl-1,4,5,6-tetrahydropyrimidine-4-carboxylic acid] was tested, and the “Closure of the circular injury in comparison with the control solution” value (“Closure of the circular injury” below) ([2]; 1 mM ectoine) was “marked tendency towards faster closure”, the “Area of Injury (MW)” value ([2]; 1 mM ectoine, after 0 hours) was 0.354 mm^2 and the “Area of Injury (MW)” value ([2]; 1 mM ectoine, after 24 hours) was 0.157 mm^2. For the same molecule, the “Area of Injury (MW)” value ([2]; 1 mM ectoine, after 48 hours) was 0.042 mm^2, the “Closure of the circular injury” value ([2]; 10 mM ectoine) was “marked tendency towards faster closure” and the “Area of Injury (MW)” value ([2]; 10 mM ectoine, after 0 hours) was 0.351 mm^2. The “Area of Injury (MW)” value ([2]; 10 mM ectoine, after 24 hours) was 0.182 mm^2, the “Area of Injury (MW)” value ([2]; 10 mM ectoine, after 48 hours) was 0.023 mm^2 and the “Closure of the circular injury” value ([2]; 100 mM ectoine) was “delayed healing”. The “Area of Injury (MW)” value ([2]; 100 mM ectoine, after 0 hours) was 0.325 mm^2, the “Area of Injury (MW)” value ([2]; 100 mM ectoine, after 24 hours) was 0.244 mm^2 and the “Area of Injury (MW)” value ([2]; 100 mM ectoine, after 48 hours) was 0.171 mm^2. For the same molecule, the “Gap width in %” value ([3]; 0.1 mM ectoine) was 100.687%, the “Gap width in %” value ([3]; 0.5 mM ectoine) was 96.434% and the “Gap width in %” value ([3]; 1 mM ectoine) was 91.632%. For the same molecule, the “Gap width in %” value ([3]; 2.5 mM ectoine) was 93.012%, the “Gap width in %” value ([3]; 5 mM ectoine) was 88.418% and the “Gap width in treated cell cultures (re-epithelialization)” value [3] was “diminished faster”.

In the case of CC1=NC[C@H](O)[C@@H](C(=O)O)N1 [hydroxyectoine, (4S,5S)-5-hydroxy-2-methyl-1,4,5,6-tetrahydropyrimidine-4-carboxylic acid], the “Re-epithelialization, hydroxyectoine compared with ectoine” value [3] is reported as “slightly more effective with hydroxyectoine than with ectoine”, the “Gap width in treated cell cultures (re-epithelialization)” value [3] is reported as “diminished faster” and the Wound healing potential [1] is reported as “improved wound healing potential”.

CC1=NC[C@H](O)[C@@H](C(=O)O)N1 [HE hypertonic, Hydroxyectoine] was tested, and the “Wound healing progress based” value [1] was 1.21 and the “Absolute wound healing progress” value [1] was 2.08.

With OCC(CO)OC1OC(CO)[C@@H](O)C(O)C1O (stereo in doubt) [glucosylglycerol, 2-O-α-D-glucosylglycerol] the Wound healing potential [1] was “improved wound healing potential”.
